Experimental data published in patent publication US20260364080A1, “PYRAZOLO-PYRIMIDINONE COMPOUNDS FOR USE IN METHODS OF INHIBITING WEE1 A KINASE” (Acrivon Therapeutics, Inc., priority 2023, published 2026).

Assays:
[1] = molecular target: T1, recombinant human Wee1A kinase (Homo sapiens, UniProt P30291); assay: Wee1A kinase binding assay (LanthaScreen Eu time-resolved FRET); conditions: 30 nM tracer 178, 5 nM Wee1A kinase, 2 nM Eu-labeled antibody; 60 minutes at room temperature; read-out: Wee1A kinase Binding IC50
T1 construct: full length Wee1 kinase was expressed by baculovirus in insect cells; purchased Invitrogen PV3817; host or cells: insect cells (baculovirus)
Procedure, shortened: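 Full-length, baculovirus-expressed GST-tagged Wee1A (5 nM) was mixed with 2 nM Eu-anti-GST antibody, 30 nM kinase tracer 178 and compound (1% DMSO). Buffer was 50 mM HEPES pH 7.5, 10 mM MgCl2, 1 mM EGTA, 0.01% Brij-35, incubated 60 min at room temperature. TR-FRET 665/615 nm emission ratios from duplicates were curve-fitted.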

[2] = molecular target: T2, Wee1A kinase (CDK1 Tyr15 phosphorylation in ACHN renal cell carcinoma cells) (Homo sapiens, UniProt P30291); assay: High-content imaging of pCdk1 Y15, Wee1A kinase target engagement in ACHN cells; type: cell-based; conditions: 4 h treatment, nuclear positivity for pCdk1 Y15 vs DMSO control, read-out: CDK1 Tyr15 Phosphorylation EC50
T2 construct: pCDK1 Tyr15 immunofluorescence read-out
Procedure, shortened: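 ACHN cells exposed to compound for 4 h over 7–5,000 nM or 0.3–200 nM, then fixed and immunostained for pCDK1 Y15 with DAPI nuclear counterstain. The percentage of pCdk1 Y15 nucleus-positive cells relative to DMSO control was imaged per well; EC50 from dose-response curves.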

[3] = molecular target: T3, Myt1 kinase (recombinant PMYT-1) (Homo sapiens, UniProt Q99640); assay: Myt1 kinase binding assay (LanthaScreen Eu Kinase Binding Assay); conditions: 3 nM tracer 178, 2.5 nM PMYT-1, 1 nM Eu-labeled antibody; read-out: Myt1 kinase Binding IC50
T3 construct: full length PMYT-1 was expressed by baculovirus in insect cells; purchased Invitrogen A30984; host or cells: insect cells (baculovirus)
T3 sequence (Q99640 1-499): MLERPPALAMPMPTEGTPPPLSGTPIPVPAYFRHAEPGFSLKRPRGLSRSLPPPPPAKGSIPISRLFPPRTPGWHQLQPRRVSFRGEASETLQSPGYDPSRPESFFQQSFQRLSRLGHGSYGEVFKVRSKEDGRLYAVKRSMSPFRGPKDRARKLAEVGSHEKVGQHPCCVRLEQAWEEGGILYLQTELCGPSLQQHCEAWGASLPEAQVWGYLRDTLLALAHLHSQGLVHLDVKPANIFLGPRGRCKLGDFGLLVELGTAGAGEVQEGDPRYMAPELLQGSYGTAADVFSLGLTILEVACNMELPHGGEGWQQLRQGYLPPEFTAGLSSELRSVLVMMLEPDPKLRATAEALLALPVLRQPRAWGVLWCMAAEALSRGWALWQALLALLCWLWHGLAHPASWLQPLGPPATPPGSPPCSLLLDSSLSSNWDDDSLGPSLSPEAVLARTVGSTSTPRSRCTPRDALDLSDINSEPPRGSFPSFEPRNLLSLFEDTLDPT
Procedure, shortened: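 The binding affinity of compounds for Myt1 kinase was measured with a LanthaScreen Europium (Eu) Kinase Binding Assay, a time-resolved FRET format in which test compounds compete against a labeled kinase tracer, and the results were expressed as IC50 values describing compound binding to Myt1.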

T1 sequence (P30291 whole entry): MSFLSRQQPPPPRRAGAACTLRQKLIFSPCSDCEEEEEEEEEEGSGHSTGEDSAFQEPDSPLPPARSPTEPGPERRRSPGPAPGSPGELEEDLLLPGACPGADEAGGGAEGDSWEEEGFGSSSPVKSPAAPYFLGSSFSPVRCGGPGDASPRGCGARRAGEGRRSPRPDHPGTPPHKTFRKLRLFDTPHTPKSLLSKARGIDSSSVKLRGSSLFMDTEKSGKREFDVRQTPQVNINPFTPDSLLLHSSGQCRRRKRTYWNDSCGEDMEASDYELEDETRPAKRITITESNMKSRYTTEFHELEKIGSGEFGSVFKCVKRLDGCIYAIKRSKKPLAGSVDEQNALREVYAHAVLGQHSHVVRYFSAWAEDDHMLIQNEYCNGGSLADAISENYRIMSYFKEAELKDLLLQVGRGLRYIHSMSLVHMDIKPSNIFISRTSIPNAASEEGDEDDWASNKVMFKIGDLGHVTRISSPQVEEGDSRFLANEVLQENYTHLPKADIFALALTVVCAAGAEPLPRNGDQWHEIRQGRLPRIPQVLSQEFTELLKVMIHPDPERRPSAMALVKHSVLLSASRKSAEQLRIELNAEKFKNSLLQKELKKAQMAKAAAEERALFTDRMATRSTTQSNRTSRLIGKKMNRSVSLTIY
T2 sequence (P30291 whole entry): as above

| Structure (SMILES) | IC50 [1] [µM] | EC50 [2] [µM] | IC50 [3] [µM] |
| --- | --- | --- | --- |
| C=CCn1c(=O)c2cnc(Nc3ccc4c(cnn4C)c3)nc2n1-c1cccc(OC2CCNCC2)c1 [Compound 223, 2-allyl-6-(1-methyl-1H-indazol-5-ylamino)-1-[m-(4-piperidyloxy)phenyl]-1,2-dihydro-3H-1,2,5,7-tetraazainden-3-one] | < 0.01 | 0.1 to 0.5 | > 0.5 |
| C=CCn1c(=O)c2cnc(Nc3ccc(C)nc3)nc2n1-c1cccc(OC2CCNCC2)n1 [Compound 237, 2-allyl-6-((6-methylpyridin-3-yl)amino)-1-(6-(piperidin-4-yloxy)pyridin-2-yl)-1,2-dihydro-3H-pyrazolo[3,4-d]pyrimidin-3-one] | < 0.01 | 0.1 to 0.5 | 0.02 to 0.1 |
| C=CCn1c(=O)c2cnc(Nc3ccc4nccnc4c3)nc2n1-c1cccc(OC2CCNCC2)n1 [Compound 239, 2-allyl-1-[6-(4-piperidyloxy)-2-pyridyl]-6-(6-quinoxalinylamino)-1,2-dihydro-3H-1,2,5,7-tetraazainden-3-one] | < 0.01 | 0.1 to 0.5 | < 0.02 |
| C=CCn1c(=O)c2cnc(Nc3ccc4ncnn4c3)nc2n1-c1cccc(OC2CCNCC2)n1 [Compound 245, 2-allyl-6-(1,3,3a-triaza-5-indenylamino)-1-[6-(4-piperidyloxy)-2-pyridyl]-1,2-dihydro-3H-1,2,5,7-tetraazainden-3-one] | < 0.01 | > 1 | 0.02 to 0.1 |
| C=CCn1c(=O)c2cnc(Nc3ccc(F)cc3)nc2n1-c1ccnc(OC2CCNCC2)n1 [Compound 247, 2-allyl-6-((4-fluorophenyl)amino)-1-(2-((piperidin-4-yl)oxy)pyrimidin-4-yl)-1,2-dihydro-3H-pyrazolo[3,4-d]pyrimidin-3-one] | < 0.01 | 0.1 to 0.5 | < 0.02 |
| C=CCn1c(=O)c2cnc(Nc3ccc4ncnn4c3)nc2n1-c1cccc(OC2CCN(C)CC2)n1 [Compound 249, 2-allyl-6-(1,3,3a-triaza-5-indenylamino)-1-[6-(1-methyl-4-piperidyloxy)-2-pyridyl]-1,2-dihydro-3H-1,2,5,7-tetraazainden-3-one] | < 0.01 | 0.1 to 0.5 | 0.02 to 0.1 |
| C=CCn1c(=O)c2cnc(Nc3ccc(N4CCOCC4)c(C)c3)nc2n1-c1cccc(OC2CCNCC2)n1 [Compound 262, 2-allyl-6-(4-morpholino-3-toluidino)-1-[6-(4-piperidyloxy)-2-pyridyl]-1,2-dihydro-3H-1,2,5,7-tetraazainden-3-one] | < 0.01 | < 0.1 | 0.02 to 0.1 |
| C=CCn1c(=O)c2cnc(Nc3ccnc(OC)c3)nc2n1-c1cccc(OC2CCN(C)CC2)n1 [Compound 263, 2-allyl-6-(2-methoxy-4-pyridylamino)-1-[6-(1-methyl-4-piperidyloxy)-2-pyridyl]-1,2-dihydro-3H-1,2,5,7-tetraazainden-3-one] | < 0.01 | < 0.1 | < 0.02 |
| C=CCn1c(=O)c2cnc(Nc3ccc4nc(C)sc4c3)nc2n1-c1cccc(OC2CCNCC2)n1 [Compound 264, 2-allyl-6-(2-methyl-1,3-benzothiazol-6-ylamino)-1-[6-(4-piperidyloxy)-2-pyridyl]-1,2-dihydro-3H-1,2,5,7-tetraazainden-3-one] | < 0.01 | < 0.1 | < 0.02 |
| CCn1c(=O)c2cnc(Nc3ccc(Br)cc3)nc2n1-c1cccc(OC2CCNCC2)n1 [Compound 267, 6-(p-bromophenylamino)-2-ethyl-1-[6-(4-piperidyloxy)-2-pyridyl]-1,2-dihydro-3H-1,2,5,7-tetraazainden-3-one] | < 0.01 | 0.1 to 0.5 | 0.02 to 0.1 |
| CCn1c(=O)c2cnc(Nc3ccc(Br)cc3)nc2n1-c1cccc(OC2CCN(C)CC2)n1 [Compound 268, 6-(p-bromophenylamino)-2-ethyl-1-[6-(1-methyl-4-piperidyloxy)-2-pyridyl]-1,2-dihydro-3H-1,2,5,7-tetraazainden-3-one] | < 0.01 | 0.1 to 0.5 | < 0.02 |
| C=CCn1c(=O)c2cnc(Nc3cccc(Br)c3)nc2n1-c1cccc(OC2CCN(C)CC2)n1 [Compound 269, 2-allyl-6-(m-bromophenylamino)-1-[6-(1-methyl-4-piperidyloxy)-2-pyridyl]-1,2-dihydro-3H-1,2,5,7-tetraazainden-3-one] | < 0.01 | 0.1 to 0.5 | < 0.02 |
| CCn1c(=O)c2cnc(Nc3ccc(-c4cnn(C)c4)cc3)nc2n1-c1cccc(OC2CCNCC2)n1 [Compound 271, 2-ethyl-6-[p-(1-methyl-4-pyrazolyl)phenylamino]-1-[6-(4-piperidyloxy)-2-pyridyl]-1,2-dihydro-3H-1,2,5,7-tetraazainden-3-one] | < 0.01 | 0.1 to 0.5 | < 0.02 |
| CCn1c(=O)c2cnc(Nc3ccc(-c4ccccc4)cc3)nc2n1-c1cccc(OC2CCNCC2)n1 [Compound 272, 6-(4-biphenylylamino)-2-ethyl-1-[6-(4-piperidyloxy)-2-pyridyl]-1,2-dihydro-3H-1,2,5,7-tetraazainden-3-one] | < 0.01 | 0.1 to 0.5 | < 0.02 |
| C=CCn1c(=O)c2cnc(Nc3ccc4nn(C)cc4c3)nc2n1-c1cccc(OC2CCNCC2)n1 [Compound 274, 2-allyl-6-((2-methyl-2H-indazol-5-yl)amino)-1-(6-(piperidin-4-yloxy)pyridin-2-yl)-1,2-dihydro-3H-pyrazolo[3,4-d]pyrimidin-3-one] | < 0.01 | 0.1 to 0.5 | < 0.02 |
| C=CCn1c(=O)c2cnc(Nc3ccc4[nH]nc(Cl)c4c3)nc2n1-c1cccc(OC2CCNCC2)n1 [Compound 275, 2-allyl-6-((3-chloro-1H-indazol-5-yl)amino)-1-(6-(piperidin-4-yloxy)pyridin-2-yl)-1,2-dihydro-3H-pyrazolo[3,4-d]pyrimidin-3-one] | < 0.01 | > 1 | 0.02 to 0.1 |
| C=CCn1c(=O)c2cnc(Nc3ccc4nn(CC)cc4c3)nc2n1-c1cccc(OC2CCNCC2)n1 [Compound 276] | < 0.01 | < 0.1 | 0.02 to 0.1 |
| CCn1c(=O)c2cnc(Nc3ccc(-c4ccccc4)cc3)nc2n1-c1cccc(OC2CCN(C)CC2)n1 [Compound 284, 6-(4-biphenylylamino)-2-ethyl-1-[6-(1-methyl-4-piperidyloxy)-2-pyridyl]-1,2-dihydro-3H-1,2,5,7-tetraazainden-3-one] | < 0.01 | 0.1 to 0.5 | < 0.02 |
| CCn1c(=O)c2cnc(Nc3ccc4c(cnn4C)c3)nc2n1-c1cccc(NC2CCNCC2)n1 [Compound 285, 2-ethyl-6-[(1-methyl-1H-indazol-5-yl)amino]-1-{6-[(piperidin-4-yl)amino]pyridin-2-yl}-1H,2H,3H-pyrazolo[3,4-d]pyrimidin-3-one] | < 0.01 | > 1 | 0.1 to 0.5 |
| CCn1c(=O)c2cnc(Nc3ccc(F)cc3)nc2n1-c1cccc(OC2CCNCC2)n1 [Compound 297, 2-ethyl-6-(p-fluorophenylamino)-1-[6-(4-piperidyloxy)-2-pyridyl]-1,2-dihydro-3H-1,2,5,7-tetraazainden-3-one] | < 0.01 | 0.1 to 0.5 | 0.1 to 0.5 |
| C=CCn1c(=O)c2cnc(Nc3ccc(C#N)cc3)nc2n1-c1cccc(OC2CCNCC2)n1 [Compound 300, p-{2-allyl-3-oxo-1-[6-(4-piperidyloxy)-2-pyridyl]-1,2-dihydro-3H-1,2,5,7-tetraazainden-6-ylamino}benzonitrile] | < 0.01 | 0.1 to 0.5 | 0.02 to 0.1 |
| CCn1c(=O)c2cnc(Nc3ccc(C#N)cc3)nc2n1-c1cccc(OC2CCNCC2)n1 [Compound 302, p-{2-ethyl-3-oxo-1-[6-(4-piperidyloxy)-2-pyridyl]-1,2-dihydro-3H-1,2,5,7-tetraazainden-6-ylamino}benzonitrile] | < 0.01 | 0.5 to 1 | 0.02 to 0.1 |
| C=CCn1c(=O)c2cnc(Nc3ccc(F)cc3)nc2n1-c1cccc(OC2CCCNCC2)n1 (stereo not drawn) [Compound 315, 2-allyl-1-[6-(4-azepanyloxy)-2-pyridyl]-6-(p-fluorophenylamino)-1,2-dihydro-3H-1,2,5,7-tetraazainden-3-one] | < 0.01 | 0.5 to 1 | 0.02 to 0.1 |
